Values quoted from earlier work as cited in patent US12721837B2, “Stable pharmaceutical compositions of clonidine” (AZURITY PHARMACEUTICALS, INC., priority 2021, dated 2026).

How the values were obtained:
[1] = after oral administration

**Q.** With `Clc1cccc(Cl)c1N=C1NCCN1` [Clonidine, N-(2,6-dichlorophenyl)-4,5-dihydro-1H-imidazol-2-amine] as the compound, how does the “Absorption from the gastrointestinal tract” value [1] read?
**A.** Its value is “almost completely absorbed”.

**Q.** And the Solubility in water?
**A.** The Solubility in water was “freely soluble”.
